{"source": "patent US20120283193A1", "about": "“MANIPULATION OF BRAIN IN A CIRCUIT-SPECIFIC MANNER” (priority 2009, published 2012)", "key": {"[1]": {"test_system": "VSC neurons", "format": "in vivo, Xenopus", "experimental": "(§1) Neuropharmacology. […] For selective ablation of VSCDA neurons, MPTP was bath-applied in the dark to larvae for 8 h at stage 41. 100 mM deprenyl (Sigma) was bath-applied to inhibit monoamine oxidase.\nImmunocytochemistry. The number of neurons in the VSC was quantified by counting the cells within the core and the surrounding annular region in sections of the diencephalon.\nA pharmacological approach to test the involvement of electrical activity and calcium signaling was then performed. […] agarose beads loaded with calcein acetoxymethylester (calcein-AM) tracer were implanted in the roof of the hypothalamus above the VSC to evaluate the time course of drug delivery."}, "[2]": {"test_system": "OB interneurons", "assay": "Neurotransmitter expression in olfactory bulb interneurons after kin/non-kin odorant exposure", "format": "in vivo, Xenopus laevis"}, "[3]": {"test_system": "Xenopus larvae", "assay": "Skin pigmentation adaptation to illumination/background in larvae", "format": "in vivo", "settings": "for light-dependent changes in pigmentation (reduction in pigmented area) driven by newly induced TH/NPY annular neurons: MPTP-light and control larvae, sulpiride 10 nM during 30-min exposure to white background (FIG. 6c)", "experimental": "Illumination experiments. The optimal condition for altering skin pigmentation and numbers of TH neurons were determined by raising larvae under two illumination conditions. In the first, larvae were placed on black, grey or white backgrounds (corresponding to N2.25, N7.25 or N9.5 on the Munsell neutral value scale of a monochromatic colour wheel) with constant illumination (331 lux (lx)). In the second, larvae on a white, grey or black background were exposed to constant illumination (6,560 lx, measured with a light meter (Sper Scientific)-equivalent to shady illumination on a sunny day), or to constant dark or to 12 h light/12 h dark. […] For some tests of the functional significance of newly TH neurons, animals were raised under different light/background conditions and a conditioning step of 30 min light/white background exposure was imposed to achieve similar levels of skin pigmentation before comparing light or dark adaptation between these groups.\nas §1"}}, "note": "Where two headings read alike, the source gives them in different places.", "data": [{"compound": "CC(=O)OCOC(=O)CN(CC(=O)OCOC(C)=O)c1ccccc1OCCOc1ccccc1N(CC(=O)OCOC(C)=O)CC(=O)OCOC(C)=O", "note": "[BAPTA-AM, 1,2-bis-(o-aminophenoxy)-ethane-N,N,N9,N9-tetraacetic acid, tetraacetoxymethyl ester]", "values": [{"measurement": "number of TH neurons or NPY/TH annular neurons in the VSC", "setting": "[1]; drug-loaded agarose beads implanted above the VSC, 2 h white light following 24 h in the dark (FIG. 4b, c)", "value": "no increase"}, {"measurement": "NPY/TH colocalization in VSC sections of bead-implanted larvae", "setting": "[1]; larvae exposed to 2 h light, versus white-adapted control and calcein bead (FIG. 4B)", "value": "absent"}, {"measurement": "changes in NT phenotype (dopamine/GABA coexpression) after kin or nonkin exposure", "setting": "[2]; local delivery, stage 45 larvae, 48 hr odorant exposure", "value": "prevents"}]}, {"compound": "CN1CC=C(c2ccccc2)CC1", "note": "[MPTP, 1-methyl-4-phenyl-1,2,3,6-tetrahydropyridine]", "values": [{"measurement": "changes in pigmentation after 30 min exposure to light / white background", "setting": "[3]; dark-raised, MPTP-treated larvae (MPTP-dark group, FIG. 6c)", "value": "abolished"}]}, {"compound": "NC1=N[C@H](O)[C@H]2[C@H]3O[C@]4(O)O[C@@H]([C@@H](O)[C@@]2(N1)[C@@H]4O)[C@]3(O)CO", "note": "[TTX, tetrodotoxin]", "values": [{"measurement": "number of TH neurons or NPY/TH annular neurons in the VSC", "setting": "[1]; in vivo", "value": "no increase"}, {"measurement": "changes in NT phenotype (dopamine/GABA coexpression) after kin or nonkin exposure", "setting": "[2]; in vivo", "value": "prevents"}]}, {"compound": "CCN1CCCC1CNC(=O)c1cc(S(N)(=O)=O)ccc1OC", "note": "(centres unmarked) [sulpiride]", "values": [{"measurement": "light-dependent changes in pigmentation (reduction in pigmented area) driven by newly induced TH/NPY annular neurons", "setting": "[3]", "value": "blocked"}, {"measurement": "light-dependent changes in pigmentation (reduction in pigmented area) driven by newly induced TH/NPY annular neurons", "setting": "[3]; listed as Sulpiride", "value": "blocks"}, {"measurement": "changes in skin pigmentation in response to altered illumination", "setting": "[3]; stage-42 larvae raised in the dark, 10 nM sulpiride for 30 min (FIG. 1c)", "value": "blocked"}, {"measurement": "number of TH VSC neurons", "setting": "[1]; sulpiride-treated larvae", "value": "not affected"}]}, {"compound": "Oc1cc2c(cc1O)C(c1ccccc1)CNCC2", "note": "(centres unmarked) [SKF-38393]", "values": [{"measurement": "effect on pigmentation behaviour", "setting": "[3]; D1 receptor agonist and antagonist, opposite effect to the D2 ligands", "value": "darkening"}]}]}
